{"source": "patent US9611246B2", "about": "“Compositions, apparatus, systems, and methods for resolving electronic excited states” (HALLSTAR INNOVATIONS CORP., priority 2012, dated 2017)", "key": {"[1]": {"assay": "Voltammetry, redox potential with respect to Ag/AgCl reference electrode", "assay_type": "physicochemical", "settings": "vs Ag/AgCl", "text": "For these experiments, dimethylsulfoxide (DMSO) and tetrabutylammonium perchlorate (TBAP) were obtained from Sigma Aldrich and used as received. […] Platinum wires (BASi MW-1032) of diameter 0.5 mm were employed for both the working electrode (WE) and counter electrode (CE). A dry-solvent tolerant Ag/AgCl reference electrode (RE) was obtained from eDAQ (Model ET072). The WE and CE were cleaned prior to each by first rinsing in acetone, then DI, followed by soaking in ˜50% aqueous H2SO4 for 10-20 minutes and then a final DI rinse. The RE electrode was cleaned prior to each use by an acetone rinse followed by DI rinse. Each sample solution was prepared in a fresh glass vial which had been rinsed with DI then acetone and allowed to dry Immediately after preparing each solution, it was purged with pure N2 gas for 15-20 minutes with the electrodes in place. Voltammetry data was collected shortly afterwards with an EG&G PAR 263 A Potentiostant/Galvanostat operated using a Labview-based control program. Scans were performed at various potential ranges between +2.0V and −2.0V (vs Ag/AgCl); all scan rates were constant at 200 mV/s."}, "[2]": {"assay": "Protoporphyrin IX triplet state quenching by laser flash photolysis", "assay_type": "physicochemical", "settings": "PPIX, acetonitrile solutions at room temperature", "method": "To investigate if triplet states of protoporphyrin IX are quenched by the two compounds, laser flash photolysis experiments were performed. In these experiments, a deoxygenated acetonitrile solution of protoporphyrin IX is excited with short laser pulses from a Nd-YAG laser (355 nm, 5 ns pulse width). Difference absorption kinetic traces were recorded at different observation wavelengths (300 to 800 nm) and from these a transient absorption spectrum was constructed (FIG. 5A). […] In addition, two bands are observed at 320 and 440 nm, which are assigned to the triplet-triplet absorption of protoporphyrin IX. […] Triplet absorption kinetics at 440 nm may be utilized to obtain triplet quenching rate constants by the stabilizers. Triplet decay traces at 440 nm were recorded in the presence of different amounts of the alkoxy […], Formulas […])(1), and the mixture of II(b)(1) and II(c)(1). The decay traces were fitted to a first-order kinetics. The plot of these pseudo-first-order rate constants (inverse decay lifetime) vs. the concentration of the two compounds gives directly the bimolecular triplet quenching rate constant from the slope (FIG. 6). The biomolecular quenching rate constants for singlet excited state (kq^S) and triplet excited state (kq^T) quenching of PPIX by stabilizers in acetonitrile solutions at room temperature is shown in Table 4, as well and the Stern-Volmer rate constants."}, "[3]": {"assay": "Protoporphyrin IX fluorescence lifetime quenching (singlet excited state)", "assay_type": "physicochemical", "settings": "PPIX; for bimolecular quenching rate constant for singlet excited state quenching (in words): acetonitrile; for Singlet Quenching Rate Constant: acetonitrile solutions at room temperature", "method": "Fluorescence lifetime measurements are a convenient way to measure singlet state quenching by stabilizers. Protoporphyrin IX decay traces were recorded in the absence and presence of compound I(a)(1) and alkoxy […] (FIG. 3). […] The collected data shown in FIG. 3 were used to determine the bimolecular quenching rate constant for singlet excited state quenching by the compounds. The quenching rate constant may be directly extracted from the slope of the plot of the inverse fluorescence lifetime vs. the concentration of the two compounds (FIG. 4). […] The biomolecular quenching rate constants for singlet excited state (kq^S) and triplet excited state (kq^T) quenching of PPIX by stabilizers in acetonitrile solutions at room temperature is shown in Table 4, as well and the Stern-Volmer rate constants."}, "[4]": {"assay": "Stern-Volmer analysis of singlet oxygen suppression", "assay_type": "physicochemical", "from_the_text": "The singlet oxygen phosphorescence intensity in the absence of the compound of Formulas I(a)(1), II(a)(1), II(d)(1), II(e)(1), or a mixture of II(b)(1) and II(c)(1) (I0) divided by the singlet oxygen phosphorescence intensity in the presence of compounds of Formula I/II(I) was plotted against the Formula I/II concentration (FIG. 16). From the slope of these plots (Stern-Volmer constant) and the lifetime of the quenched excited state, the bimolecular quenching constant can be extracted. If the excited state, which is quenched by the compound of Formula I(a)(1) (which causes a reduction in singlet oxygen production) is the singlet excited state of protoporphyrin IX then, using the previously measured fluorescence lifetime in acetonitrile (if =12.7 ns) a quenching rate constant of 2.4×10^9 M^−1 s^−1 is estimated. […] The rate constant derived from singlet oxygen phosphorescence quenching (FIG. 16) is only half of the more directly derived rate constant from fluorescence quenching, which could be caused by the difference in solvents or by some contribution of protoporphyrin triplet quenching by the compound of Formula I(a)(1). […] This rate constant is 5 times higher than the directly measured rate constant by laser flash photolysis (6.1×10^6 M^−1 s^−1). […] It must be noted that protoporphyrin IX triplet lifetime of ˜1 μs in air saturated DMSO was only estimated based on the directly measured triplet lifetime in air saturated acetonitrile and considering the different oxygen concentration in DMSO compared to acetonitrile. If necessary, the protoporphyrin IX triplet lifetime in air saturated DMSO can easily be measured by laser flash photolysis. The complex reaction mechanism is summarized in Scheme 1 (FIG. 17).\nThe biomolecular quenching rate constants for singlet excited state (kq^S) and triplet excited state (kq^T) quenching of PPIX by stabilizers in acetonitrile solutions at room temperature is shown in Table 4, as well and the Stern-Volmer rate constants.\nStern-Volmer constants are in direct correlation with the singlet oxygen suppression efficiency. Table 4 (above) summarizes the Stern-Volmer constants and PPIX singlet and triplet state quenching rate constants. Three different ranges of Stern-Volmer constants were observed. […] For compounds I(a)(1), II(d)(1), and the mixture of II(b)(1) and II(c)(1), Stern-Volmer constants of about 30 M^−1 were observed. For these three stabilizers, high PPIX singlet quenching rate constants (about 5×10^9 M^−1 s^−1) but low triplet quenching rate constants (<10^9 M^−1 s^−1) were observed. Here, the singlet oxygen suppression is probably dominated by PPIX singlet excited state quenching by these stabilizers. […] Because of the very high PPIX triplet quenching rate constant by compound II(a)(1) (3.2×10^9 M^−1 s^−1), the singlet oxygen suppression is probably dominated by triplet quenching. […] These kinetic parameters may include the MePPIX triplet and singlet lifetimes in air saturated and oxygen free CDCl3 and the bimolecular quenching constant by oxygen."}, "[5]": {"assay": "Photostabilization of Avobenzone and OMC, solution on quartz (Experiment 6-2)", "assay_type": "physicochemical", "settings": "Avobenzone 3%, OMC 7.5%", "from_the_text": "Experiment 6-2 compares the compounds at 3% to photostabilize Avobenzone at 3% and OMC at 7.5%. The results are shown in Table 2 and graphically in FIG. 20."}, "[6]": {"assay": "UV and visible light absorption spectra of stabilizers", "assay_type": "physicochemical", "settings": "acetonitrile", "method": "UV and visible light absorption spectra were recorded to investigate to what extent each stabilizer itself absorbs UV light. […] Protoporphyrin IX has weak absorption bands above 450 nm, where the two compounds are transparent (FIG. 2). The compound with the oxygen bridge (Formula II(d)(1)) caused a bathocromic shift of the UV absorption of the lowest energy band. The compound with the sulfur bridge (Formula II(e)(1)) shifted the lowest energy band further into the visible region."}, "[7]": {"test_system": "visible light-induced free radicals in pig skin", "assay": "Visible light-induced free radicals in ALA-treated pig skin by Electron Spin Resonance", "settings": "1% reference", "method": "A conjugated fused tricycle compound according to Formula II(a)(1) reduced visible light-induced free radicals in skin by up to 89% and did so in a dose-dependent manner (FIG. 21). The study was conducted using pig skin, which is recognized for its similarity to human skin. Topical application of aminolevulinic acid (ALA) induced the skin to over-produce the endogenous photosensitizer Protoporphyrin IX (PPIX). Solutions of Formula II(a)(1) at different concentrations were then topically applied to the ALA treated skin after which it was exposed to bright green light. The resulting free radical content of the skin was then measured by Electron Spin Resonance (ESR). Studies conducted in solution have shown that Formula II(a)(1) suppresses singlet oxygen production by PPIX. […] The mechanisms of action of Formula II(a)(1) and Tocopherol are different: the former prevents free radicals from forming; the latter scavenges free radicals after they appear."}, "[8]": {"settings": "reference value; cited from earlier work"}, "[9]": {"settings": "0.01 M in 0.1 M TBAP in DMSO, 200 mV/s"}}}
{"compound": "COC(=O)C(C#N)=c1c2ccccc2c(=C(C#N)C(=O)OC)c2ccccc12", "note": "[Formula II(b)(1)]", "values": [{"measurement": "first (or only) redox couple, oxidation peak", "setting": "[1]; [9]", "value": "+54 mV"}, {"measurement": "first (or only) redox couple, reduction peak", "setting": "[1]; [9]", "value": "−545", "unit": "mV"}, {"measurement": "first (or only) redox couple, redox potential", "setting": "[1]; estimated from the peaks", "value": "−245", "unit": "mV"}]}
{"compound": "COC(=O)C(C#N)=C1c2ccccc2Oc2ccccc21", "note": "[Formula II(d)(1)]", "values": [{"measurement": "Triplet Quenching Rate Constant", "setting": "[2]", "value": "0.14 10^9 M^−1s^−1"}, {"measurement": "bimolecular quenching rate constant for singlet excited state quenching (in words)", "setting": "[3]", "value": "high quenching rate constant"}, {"measurement": "Singlet Quenching Rate Constant", "setting": "[3]", "value": "3.7 10^9 M^−1s^−1"}]}
{"compound": "COC(=O)C(C#N)=C1c2ccccc2Sc2ccccc21", "note": "[Formula II(e)(1)]", "values": [{"measurement": "second redox couple, oxidation peak (large)", "setting": "[1]", "value": "+434 mV"}, {"measurement": "first (or only) redox couple, oxidation peak", "setting": "[1]; [9]", "value": "−782", "unit": "mV"}, {"measurement": "first (or only) redox couple, reduction peak", "setting": "[1]; [9]", "value": "−969", "unit": "mV"}, {"measurement": "second redox couple, reduction peak", "setting": "[1]; [9]", "value": "−1409", "unit": "mV"}, {"measurement": "first (or only) redox couple, redox potential", "setting": "[1]; estimated from the peaks", "value": "−875", "unit": "mV"}, {"measurement": "second redox couple, redox potential", "setting": "[1]; estimated from the peaks", "value": "−1347", "unit": "mV"}, {"measurement": "second redox couple, oxidation peak", "setting": "[1]; the small peak where two are given", "value": "−1286", "unit": "mV"}, {"measurement": "Triplet Quenching Rate Constant", "setting": "[2]", "value": "0.0012 10^9 M^−1s^−1"}, {"measurement": "Stern-Volmer Constant of ^1O2 Suppression", "setting": "[4]", "value": 1.2, "unit": "M⁻¹"}, {"measurement": "singlet oxygen suppression (in words)", "setting": "[4]", "value": "only negligible singlet oxygen suppression"}, {"measurement": "bimolecular quenching rate constant for singlet excited state quenching (in words)", "setting": "[3]", "value": "high quenching rate constant"}, {"measurement": "Singlet Quenching Rate Constant", "setting": "[3]", "value": "0.65 10^9 M^−1s^−1"}]}
{"compound": "CCCCC(CC)COC(=O)C(C#N)=C1c2ccccc2Oc2ccccc21", "note": "(centres unmarked) [Formula Y-1-9, Ethylhexyl cyano xanthenylidene acetate]", "values": [{"measurement": "% UVA", "setting": "[5]; stabilizer level 1.0", "value": 88.6, "unit": "%"}, {"measurement": "% UVB", "setting": "[5]; stabilizer level 1.0", "value": 91.8, "unit": "%"}, {"measurement": "% UVA", "setting": "[5]; stabilizer level 2.0", "value": 88.6, "unit": "%"}, {"measurement": "% UVB", "setting": "[5]; stabilizer level 2.0", "value": 91.1, "unit": "%"}, {"measurement": "% UVA", "setting": "[5]; stabilizer level 4.0", "value": 94.5, "unit": "%"}, {"measurement": "% UVB", "setting": "[5]; stabilizer level 4.0", "value": 95.3, "unit": "%"}]}
{"compound": "CCCCC(CC)COC(=O)C(C#N)=C1c2ccccc2Sc2ccccc21", "note": "(centres unmarked) [Formula Y-1-15, Ethylhexyl cyano thioxanthenylidene acetate]", "values": [{"measurement": "% UVA", "setting": "[5]; stabilizer level 1.0", "value": 85.5, "unit": "%"}, {"measurement": "% UVB", "setting": "[5]; stabilizer level 1.0", "value": 90.0, "unit": "%"}, {"measurement": "% UVA", "setting": "[5]; stabilizer level 2.0", "value": 91.0, "unit": "%"}, {"measurement": "% UVB", "setting": "[5]; stabilizer level 2.0", "value": 93.8, "unit": "%"}, {"measurement": "% UVA", "setting": "[5]; stabilizer level 4.0", "value": 90.8, "unit": "%"}, {"measurement": "% UVB", "setting": "[5]; stabilizer level 4.0", "value": 93.9, "unit": "%"}]}
{"compound": "CCCCC(CC)COC(=O)C(C#N)=C(c1ccccc1)c1ccc(OC)cc1", "note": "(centres unmarked) [SolaStay S1, ethylhexyl methoxycrylene, reference compound]", "values": [{"measurement": "% UVA", "setting": "[5]; stabilizer level 1.0", "value": 81.3, "unit": "%"}, {"measurement": "% UVB", "setting": "[5]; stabilizer level 1.0", "value": 87.8, "unit": "%"}, {"measurement": "% UVA", "setting": "[5]; stabilizer level 2.0", "value": 84.2, "unit": "%"}, {"measurement": "% UVB", "setting": "[5]; stabilizer level 2.0", "value": 90.1, "unit": "%"}, {"measurement": "% UVA", "setting": "[5]; stabilizer level 4.0", "value": 87.3, "unit": "%"}, {"measurement": "% UVB", "setting": "[5]; stabilizer level 4.0", "value": 91.5, "unit": "%"}, {"measurement": "λmax", "setting": "[6]", "value": 336, "unit": "nm"}, {"measurement": "extinction coefficient (molar absorptivity)", "setting": "[6]; at λmax", "value": "13,200 M −1 cm −1"}]}
{"compound": "Cc1c(C)c2c(c(C)c1O)CCC(C)(CCCC(C)CCCC(C)CCCC(C)C)O2", "note": "(centres unmarked) [Tocopherol, reference compound]", "values": [{"measurement": "Free Radicals (a.u.)", "setting": "[7]; ALA-treated pig skin", "value": "1955 ± 366", "unit": "a.u."}, {"measurement": "Free Radicals (%)", "setting": "[7]; relative to 0 mM control", "value": 78, "unit": "%"}]}
{"compound": "O=C(c1ccccc1)c1ccccc1", "note": "[benzophenone]", "values": [{"measurement": "quantum yield of singlet oxygen generation (reference)", "setting": "[8]", "value": 0.35}]}
{"compound": "Ethylhexyl dimethyl 2,2′-anthracene-9,10-diylidenebis(cyanoacetate) [Formula Y-1-22]", "values": [{"measurement": "% UVA", "setting": "[5]; stabilizer level 1.0", "value": 82.1, "unit": "%"}, {"measurement": "% UVB", "setting": "[5]; stabilizer level 1.0", "value": 87.8, "unit": "%"}, {"measurement": "% UVA", "setting": "[5]; stabilizer level 2.0", "value": 87.8, "unit": "%"}, {"measurement": "% UVB", "setting": "[5]; stabilizer level 2.0", "value": 92.1, "unit": "%"}, {"measurement": "% UVA", "setting": "[5]; stabilizer level 4.0", "value": 91.0, "unit": "%"}, {"measurement": "% UVB", "setting": "[5]; stabilizer level 4.0", "value": 94.7, "unit": "%"}]}
